Experiments:
[1] = tested on: human SKM-1 acute myeloid leukemia cells; assay: SKM-1 antiproliferation cell-based assay (ATPlite); conditions: Homo sapiens, SKM-1, 96 h, SKM-1 antiproliferation assay, 4 days, Table C2
How it was run: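 Log-phase cells in RPMI 1640/15% FBS were seeded at 34722 cells/mL and exposed for 4 days to nine-concentration DMSO serial dilutions in triplicate. Viability was read as ATP luminescence (ATPlite 1step), and IC50 values came from variable-slope non-linear regression.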

[2] = target: T1, human BRD4 bromodomain II (Homo sapiens, UniProt O60885); assay: Bromodomain binding assay (AlphaScreen), BRD4 BDII; conditions: AlphaScreen assay, Table C2; read-out: BRD4 BDII IC50
T1 construct: human BRD4 bromodomain II [based on Genbank NM_058243, residues 349-460]; host or cells: E. coli
How it was run: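 AlphaScreen competition with biotinylated H4 peptide (aa 1-21, K5/K8/K12/K16Ac), using nickel-chelate acceptor and streptavidin donor beads. Targets were His6-BRD4 BDI (44-170) or BDII (349-460), with a 30 min compound preincubation over a 10-point 3-fold series. IC50 was fitted from percentage peptide binding.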

GI50 [1]	IC50 [2]	SMILES
0.3 to 30 nM	0.01 to 1 nM	CN1CCCC12CCN(c1cc(-c3cc(F)cc(-c4ccc(-n5ccn(C)c5=O)c(Cl)c4)c3O)cn(C)c1=O)C2 (stereo not drawn) [Example 696, 5-(3′-chloro-5-fluoro-2-hydroxy-4′-(3-methyl-2-oxo-2,3-dihydro-1H-imidazol-1-yl)-[1,1′-biphenyl]-3-yl)-1-methyl-3-(1-methyl-1,7-diazaspiro[4.4]nonan-7-yl)pyridin-2(1H)-one]
30 to 300 nM	1 to 10 nM	Cn1ccn(-c2ccc(-c3cc(F)cc(-c4ccnc(N5CCNC(CCN)C5)c4)c3O)cc2Cl)c1=O (stereo not drawn) [Example 697, 1-(3′-(2-(3-(2-aminoethyl)piperazin-1-yl)pyridin-4-yl)-3-chloro-5′-fluoro-2′-hydroxy-[1,1′-biphenyl]-4-yl)-3-methyl-1H-imidazol-2(3H)-one]
0.3 to 30 nM	0.01 to 1 nM	Cn1ccn(-c2ccc(-c3cc(F)cc(-c4ccnc(N5CCN[C@H](CC#N)C5)c4)c3O)cc2Cl)c1=O [Example 698, (R)-2-(4-(4-(3′-chloro-5-fluoro-2-hydroxy-4′-(3-methyl-2-oxo-2,3-dihydro-1H-imidazol-1-yl)-[1,1′-biphenyl]-3-yl)pyridin-2-yl)piperazin-2-yl)acetonitrile]
0.3 to 30 nM	0.01 to 1 nM	CC(C)N1CCN(c2cccc(-c3cc(F)cc(-c4ccc(-n5ccn(C)c5=O)c(Cl)c4)c3O)c2)CC1 [Example 699, 1-(3-chloro-5′-fluoro-2′-hydroxy-3″-(4-isopropylpiperazin-1-yl)-[1,1′:3′,1″-terphenyl]-4-yl)-3-methyl-1H-imidazol-2(3H)-one]
0.3 to 30 nM	0.01 to 1 nM	CN1CCCC12CCN(c1cncc(-c3cc(F)cc(-c4ccc(-n5ccn(C)c5=O)c(Cl)c4)c3O)c1)C2 (stereo not drawn) [Example 700, 1-(3-chloro-5′-fluoro-2′-hydroxy-3′-(5-(1-methyl-1,7-diazaspiro[4.4]nonan-7-yl)pyridin-3-yl)-[1,1′-biphenyl]-4-yl)-3-methyl-1H-imidazol-2(3H)-one]
30 to 300 nM	0.01 to 1 nM	Cn1ccn(-c2ccc(-c3cc(F)cc(-c4ccnc(N5CCC(N6CCC(F)CC6)C5)c4)c3O)cc2Cl)c1=O (stereo not drawn) [Example 701, 1-(3-chloro-5′-fluoro-3′-(2-(3-(4-fluoropiperidin-1-yl)pyrrolidin-1-yl)pyridin-4-yl)-2′-hydroxy-[1,1′-biphenyl]-4-yl)-3-methyl-1H-imidazol-2(3H)-one]
0.3 to 30 nM	0.01 to 1 nM	COc1cc(-c2cc(F)cc(-c3ccc(-n4ccn(C)c4=O)c(Cl)c3)c2O)cc(N2CCN(C(C)C)CC2)n1 [Example 702, 1-(3-chloro-5′-fluoro-2′-hydroxy-3′-(2-(4-isopropylpiperazin-1-yl)-6-methoxypyridin-4-yl)-[1,1′-biphenyl]-4-yl)-3-methyl-1H-imidazol-2(3H)-one]
0.3 to 30 nM	1 to 10 nM	Cc1cc(-c2cc(F)cc(-c3ccc(-n4ccn(C)c4=O)c(Cl)c3)c2O)cc(N2CCN(C(C)C)CC2)n1 [Example 703, 1-(3-chloro-5′-fluoro-2′-hydroxy-3′-(2-(4-isopropylpiperazin-1-yl)-6-methylpyridin-4-yl)-[1,1′-biphenyl]-4-yl)-3-methyl-1H-imidazol-2(3H)-one]
0.3 to 30 nM	0.01 to 1 nM	CCc1cc(-c2cc(F)cc(-c3ccc(-n4ccn(C)c4=O)c(Cl)c3)c2O)cc(N2CCN(C(C)C)CC2)n1 [Example 704, 1-(3-chloro-3′-(2-ethyl-6-(4-isopropylpiperazin-1-yl)pyridin-4-yl)-5′-fluoro-2′-hydroxy-[1,1′-biphenyl]-4-yl)-3-methyl-1H-imidazol-2(3H)-one]
30 to 300 nM	0.01 to 1 nM	Cn1ccn(-c2ccc(-c3cc(F)cc(-c4ccnc(N5CC6(CCNC6)CC5=O)c4)c3O)cc2Cl)c1=O (stereo not drawn) [Example 705, 2-(4-(3′-chloro-5-fluoro-2-hydroxy-4′-(3-methyl-2-oxo-2,3-dihydro-1H-imidazol-1-yl)-[1,1′-biphenyl]-3-yl)pyridin-2-yl)-2,7-diazaspiro[4.4]nonan-3-one]
0.3 to 30 nM	0.01 to 1 nM	Cn1ccn(-c2ccc(-c3cc(F)cc(-c4cc(F)cc(N5CCNCC5)c4)c3O)cc2Cl)c1=O [Example 706, 1-(3-chloro-3″,5′-difluoro-2′-hydroxy-5″-(piperazin-1-yl)-[1,1′:3,1″-terphenyl]-4-yl)-3-methyl-1H-imidazol-2(3H)-one]
30 to 300 nM	1 to 10 nM	Cn1ccn(-c2ccc(-c3cc(F)cc(-c4ccnc(N5CCS(=O)(=O)CC5)c4)c3O)cc2Cl)c1=O [Example 707, 1-(3-chloro-3′-(2-(1,1-dioxidothiomorpholino)pyridin-4-yl)-5′-fluoro-2′-hydroxy-[1,1′-biphenyl]-4-yl)-3-methyl-1H-imidazol-2(3H)-one]
0.3 to 30 nM	0.01 to 1 nM	Cn1ccn(-c2ccc(-c3cc(F)cc(-c4cncc(N5CCC(C)(O)C5)c4)c3O)cc2Cl)c1=O (stereo not drawn) [Example 708, 1-(3-chloro-5′-fluoro-2′-hydroxy-3′-(5-(3-hydroxy-3-methylpyrrolidin-1-yl)pyridin-3-yl)-[1,1′-biphenyl]-4-yl)-3-methyl-1H-imidazol-2(3H)-one]
0.3 to 30 nM	0.01 to 1 nM	Cn1ccn(-c2ccc(-c3cc(F)cc(-c4ccnc(N5CC[C@](C)(N)C5)c4)c3O)cc2Cl)c1=O [Example 711, (S)-1-(3′-(2-(3-amino-3-methylpyrrolidin-1-yl)pyridin-4-yl)-3-chloro-5′-fluoro-2′-hydroxy-[1,1′-biphenyl]-4-yl)-3-methyl-1,3-dihydro-2H-imidazol-2-one]
30 to 300 nM	0.01 to 1 nM	CN1CCC2(CC(=O)N(c3cc(-c4cc(F)cc(-c5ccc(-n6ccn(C)c6=O)c(Cl)c5)c4O)ccn3)C2)C1 (stereo not drawn) [Example 712, 2-(4-(3′-chloro-5-fluoro-2-hydroxy-4′-(3-methyl-2-oxo-2,3-dihydro-1H-imidazol-1-yl)-[1,1′-biphenyl]-3-yl)pyridin-2-yl)-7-methyl-2,7-diazaspiro[4.4]nonan-3-one]
0.3 to 30 nM	0.01 to 1 nM	CC(C)N1CCN(c2cc(F)cc(-c3cc(F)cc(-c4ccc(-n5ccn(C)c5=O)c(Cl)c4)c3O)c2)CC1 [Example 713, 1-(3-chloro-3″,5′-difluoro-2′-hydroxy-5″-(4-isopropylpiperazin-1-yl)-[1,1′:3′,1″-terphenyl]-4-yl)-3-methyl-1H-imidazol-2(3H)-one]
30 to 300 nM	0.01 to 1 nM	Cn1ccn(-c2ccc(-c3cc(F)cc(-c4ccnc(N5CCCC(C)(O)C5)c4)c3O)cc2Cl)c1=O (stereo not drawn) [Example 714, 1-(3-chloro-5′-fluoro-2′-hydroxy-3′-(2-(3-hydroxy-3-methylpiperidin-1-yl)pyridin-4-yl)-[1,1′-biphenyl]-4-yl)-3-methyl-1H-imidazol-2(3H)-one]
0.3 to 30 nM	0.01 to 1 nM	COCCCOc1cc(-c2cc(F)cc(-c3ccc(-n4ccn(C)c4=O)c(Cl)c3)c2O)cc(N2CCN[C@H](C)C2)n1 [Example 715, (R)-1-(3-chloro-5′-fluoro-2′-hydroxy-3′-(2-(3-methoxypropoxy)-6-(3-methylpiperazin-1-yl)pyridin-4-yl)-[1,1′-biphenyl]-4-yl)-3-methyl-1H-imidazol-2(3H)-one]
0.3 to 30 nM	0.01 to 1 nM	Cn1ccn(-c2ccc(-c3cc(F)cc(-c4ccnc(N5CC[C@@](C)(N)C5)c4)c3O)cc2Cl)c1=O [Example 716, (R)-1-(3′-(2-(3-amino-3-methylpyrrolidin-1-yl)pyridin-4-yl)-3-chloro-5′-fluoro-2′-hydroxy-[1,1′-biphenyl]-4-yl)-3-methyl-1,3-dihydro-]
0.3 to 30 nM	0.01 to 1 nM	CC(C)N1CCN(c2cc(-c3cc(F)cc(-c4ccc(-n5ccn(C)c5=O)c(Cl)c4)c3O)cc(=O)n2C)CC1 [Example 717, 4-(3′-chloro-5-fluoro-2-hydroxy-4′-(3-methyl-2-oxo-2,3-dihydro-1H-imidazol-1-yl)-[1,1′-biphenyl]-3-yl)-6-(4-isopropylpiperazin-1-yl)-1-methylpyridin-2(1H)-one]
0.3 to 30 nM	0.01 to 1 nM	Cn1ccn(-c2ccc(-c3cc(F)cc(-c4ccnc(N5CCC(O)(C6CC6)C5)c4)c3O)cc2Cl)c1=O (stereo not drawn) [Example 718, 1-(3-chloro-3′-(2-(3-cyclopropyl-3-hydroxypyrrolidin-1-yl)pyridin-4-yl)-5′-fluoro-2′-hydroxy-[1,1′-biphenyl]-4-yl)-3-methyl-1H-imidazol-2(3H)-one]
0.3 to 30 nM	0.01 to 1 nM	Cn1ccn(-c2ccc(-c3cc(F)cc(-c4ccc(F)c(N5CCN(C(C)(C)C)CC5)c4)c3O)cc2Cl)c1=O [Example 719, 1-(3″-(4-(tert-butyl)piperazin-1-yl)-3-chloro-4″,5′-difluoro-2′-hydroxy-[1,1′:3′,1″-terphenyl]-4-yl)-3-methyl-1H-imidazol-2(3H)-one]
0.3 to 30 nM	0.01 to 1 nM	CC(C)N1CCN(c2cc(-c3cc(F)cc(-c4ccc(-n5ccn(C)c5=O)c(Cl)c4)c3O)ccc2F)CC1 [Example 720, 1-(3-chloro-4″,5′-difluoro-2′-hydroxy-3″-(4-isopropylpiperazin-1-yl)-[1,1′:3′,1″-terphenyl]-4-yl)-3-methyl-1H-imidazol-2(3H)-one]
30 to 300 nM	0.01 to 1 nM	Cn1ccn(-c2ccc(-c3cc(F)cc(-c4ccnc(N5CC6CC6(N)C5)c4)c3O)cc2Cl)c1=O (stereo not drawn) [Example 721, 1-(3′-(2-(1-amino-3-azabicyclo[3.1.0]hexan-3-yl)pyridin-4-yl)-3-chloro-5′-fluoro-2′-hydroxy-[1,1′-biphenyl]-4-yl)-3-methyl-1H-imidazol-2(3H)-one]

Reference: patent publication US20250179059A1 (The Regents of the University of California, priority 2021, published 2025)
